Among the test systems are A549; CAKI-1; COLO 205; HCT-116; HL-60; HOP-62; K562; NCI-H23; NCI-H522; OVCAR-3; OVCAR-5; RXF 393; SF-268; SK-MEL-28; SK-MEL-2; SK-OV-3; SNB-75; TK-10; UACC-257; UO-31.
Common to all, as to test: NCI tumour cell line growth inhibition, 48 h

Structures are written as SMILES.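 Each compound was tested at five concentrations against cells in 96-well plates for 48 hours. Here, GI50 denotes the concentration required for 50% inhibition of growth.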 Activity calls are given as the source filed them. Rule as the data show it: active = GI50 up to about 1.1 µM and inactive = higher.

We go through ten molecules from ChEMBL document CHEMBL1201862, “PubChem BioAssay data set” (2004).

For `O=CN1CCC23CC(O)CCC2C1Cc1cc(Oc2nnnn2-c2ccccc2)cc(O)c13` (stereo unspecified), the GI50 in the experiment with A549 was > 100 µM (inactive); with CAKI-1, > 100 µM (inactive); with COLO 205 it was 32.9 µM (inactive); with HCT-116, > 100 µM (inactive); with HL-60 it was 52.1 µM (inactive); in the experiment on HOP-62 it was > 100 µM (inactive). Further, the GI50 with K562 is > 100 µM (inactive); in the experiment on NCI-H23, > 100 µM (inactive); in the experiment on NCI-H522, 91.4 µM (inactive); in the experiment with OVCAR-3, > 100 µM (inactive); with OVCAR-5, > 100 µM (inactive); in the experiment with RXF 393 it was > 100 µM (inactive). For the same molecule, the GI50 in the experiment with SF-268 was > 100 µM (inactive); in the experiment on SK-MEL-28 it was > 100 µM (inactive); with SK-MEL-2 it was 81.3 µM (inactive); with SK-OV-3, > 100 µM (inactive); in the experiment with SNB-75, > 100 µM (inactive); in the experiment on TK-10, > 100 µM (inactive). The GI50 is > 100 µM (inactive) with UACC-257 and 85.3 µM (inactive) in the experiment with UO-31.
As to `CN(C)CCNC(=O)c1ccc(NCCCN(C)CCCNc2ccc(C(=O)NCCN(C)C)c3nc4ccccc4c(O)c23)c2c(O)c3ccccc3nc12`, the GI50 in the experiment on A549 was < 0.01 µM (active); in the experiment with CAKI-1, 0.501 µM (active); in the experiment with COLO 205 it was < 0.0109 µM (active); in the experiment on HCT-116, < 0.01 µM (active); in the experiment with HL-60, < 0.0229 µM (active); in the experiment on HOP-62 it was < 0.01 µM (active). In addition, the GI50 with K562 was 0.0394 µM (active); in the experiment with NCI-H23 it was < 0.0122 µM (active); in the experiment with NCI-H522, < 0.01 µM (active); in the experiment on OVCAR-3, 0.0228 µM (active); with OVCAR-5, 0.0422 µM (active); in the experiment on RXF 393 it was 0.146 µM (active). The GI50 is < 0.01 µM (active) in the experiment on SF-268; 0.161 µM (active) in the experiment with SK-MEL-28; < 0.0211 µM (active) in the experiment with SK-MEL-2; < 0.0146 µM (active) with SK-OV-3; < 0.01 µM (active) in the experiment on SNB-75; 0.16 µM (active) with TK-10. The GI50 in the experiment on UACC-257 was 0.185 µM (active); with UO-31, 0.326 µM (active).
Turning to `CCOC(=O)c1cc2c([N+](=O)[O-])c(NC(C)=O)ccc2s1`, the GI50 in the experiment with A549 was 50.2 µM (inactive); with CAKI-1, 41.6 µM (inactive); with COLO 205 it was 34.8 µM (inactive); in the experiment with HCT-116 it was 87.9 µM (inactive); with HL-60, 31.7 µM (inactive); in the experiment with HOP-62 it was 90.2 µM (inactive). Further, the GI50 in the experiment on K562 is 53.6 µM (inactive); in the experiment on NCI-H23 it was 71.9 µM (inactive); with NCI-H522 it was 34.2 µM (inactive); in the experiment on OVCAR-3, 38.4 µM (inactive); with OVCAR-5, > 100 µM (inactive); with RXF 393 it was 20.2 µM (inactive). Moreover, the GI50 was 50.7 µM (inactive) in the experiment on SF-268; > 100 µM (inactive) in the experiment with SK-MEL-28; > 100 µM (inactive) in the experiment on SK-MEL-2; > 100 µM (inactive) with SK-OV-3; 19.3 µM (inactive) with SNB-75; > 100 µM (inactive) with TK-10. For the same molecule, the GI50 in the experiment with UACC-257 is > 100 µM (inactive); with UO-31, 47.3 µM (inactive).
`COc1cccc(CC(C)N)c1` (stereo unspecified): the GI50 in the experiment with A549, with CAKI-1, with COLO 205, in the experiment on HCT-116, in the experiment with HL-60 and with HOP-62 was > 100 µM (inactive) each time. Besides, the GI50 in the experiment with K562, in the experiment on NCI-H23, in the experiment on NCI-H522, with OVCAR-3, in the experiment with OVCAR-5 and in the experiment with RXF 393 was > 100 µM (inactive) throughout. The GI50 with SF-268, in the experiment with SK-MEL-28, with SK-MEL-2, in the experiment with SK-OV-3, in the experiment with SNB-75 and with TK-10 was > 100 µM (inactive) throughout. Further, the GI50 in the experiment with UACC-257 and in the experiment with UO-31 was > 100 µM (inactive) in each case.
For `C=CCN1C(=O)/C(=C/c2ccc(OC)cc2)NC1=S`, the GI50 in the experiment with A549 was 34.8 µM (inactive); in the experiment with CAKI-1, > 100 µM (inactive); in the experiment on COLO 205 it was > 100 µM (inactive); in the experiment on HCT-116, 48 µM (inactive); in the experiment on HL-60, 0.0355 µM (active); in the experiment with HOP-62, > 100 µM (inactive). Besides, the GI50 in the experiment with K562 is 38.5 µM (inactive); in the experiment on NCI-H23, 58.3 µM (inactive); with NCI-H522 it was 41.6 µM (inactive); in the experiment on OVCAR-3, > 100 µM (inactive); in the experiment with OVCAR-5, > 100 µM (inactive); in the experiment with RXF 393, 37.2 µM (inactive). Besides, the GI50 with SF-268, in the experiment on SK-MEL-28, with SK-MEL-2, in the experiment with SK-OV-3, with SNB-75 and in the experiment on TK-10 was > 100 µM (inactive) each time. The GI50 in the experiment on UACC-257 is 27.9 µM (inactive); in the experiment on UO-31, 61.4 µM (inactive).
As for `NS(=O)(=O)c1cc2c(cc1Cl)NC(C(=O)NNC(=O)c1ccncc1)=NS2(=O)=O`, the GI50 in the experiment with A549, in the experiment with CAKI-1, in the experiment with COLO 205, in the experiment with HCT-116, in the experiment on HL-60 and in the experiment with HOP-62 was > 100 µM (inactive) in each case. The GI50 in the experiment with NCI-H23, with NCI-H522, in the experiment on OVCAR-3, with RXF 393, in the experiment with SF-268 and in the experiment with SK-MEL-28 was > 100 µM (inactive) throughout. The GI50 in the experiment with SK-MEL-2, in the experiment on SK-OV-3, with SNB-75, in the experiment on TK-10, in the experiment with UACC-257 and in the experiment with UO-31 was > 100 µM (inactive) throughout.
Take `C=C1C(=O)C[C@@]23CCC[C@@]12CC(OCOC)C3` (stereo partly specified): the GI50 is 13.5 µM (inactive) in the experiment on A549; 2.3 µM (inactive) with CAKI-1; 3.8 µM (inactive) with COLO 205; 2.18 µM (inactive) in the experiment on HCT-116; 2.05 µM (inactive) in the experiment with HL-60; 12 µM (inactive) in the experiment on HOP-62. Also, the GI50 in the experiment on K562 was 3.12 µM (inactive); with NCI-H23, 3.43 µM (inactive); in the experiment on NCI-H522, 0.387 µM (active); with OVCAR-3 it was 2.72 µM (inactive); in the experiment on OVCAR-5, 3.61 µM (inactive); in the experiment on RXF 393, 0.637 µM (active). Moreover, the GI50 in the experiment with SF-268 is 4.56 µM (inactive); in the experiment on SK-MEL-28, 2.69 µM (inactive); with SK-MEL-2, 4.16 µM (inactive); in the experiment on SK-OV-3 it was 6.67 µM (inactive); with SNB-75, 2.1 µM (inactive); with UACC-257, 2.5 µM (inactive). Further, the GI50 in the experiment on UO-31 was 5.46 µM (inactive).
As to `c1cc2nnc1SCCCSc1ccc(nn1)SCCCS2`, the GI50 with A549 was 41.6 µM (inactive); in the experiment on CAKI-1, > 45.4 µM (inactive); in the experiment with COLO 205, > 47 µM (inactive); in the experiment with HCT-116, 17.6 µM (inactive); in the experiment with HL-60, > 19.9 µM (inactive); in the experiment on HOP-62, 16 µM (inactive). The GI50 was > 27.9 µM (inactive) with K562; 34.8 µM (inactive) in the experiment with NCI-H23; > 100 µM (inactive) with NCI-H522; > 43.2 µM (inactive) with OVCAR-3; 31.3 µM (inactive) in the experiment on OVCAR-5; 12.9 µM (inactive) in the experiment with RXF 393. The GI50 in the experiment on SF-268 was 22.2 µM (inactive); with SK-MEL-28, > 46.5 µM (inactive); in the experiment on SK-MEL-2, 24.7 µM (inactive); in the experiment with SK-OV-3 it was 24.7 µM (inactive); in the experiment on SNB-75, 25.1 µM (inactive); with TK-10, 35.5 µM (inactive). The GI50 with UACC-257 was > 39.9 µM (inactive); in the experiment with UO-31, > 100 µM (inactive).
With `CON(C)C(=O)C(Cc1ccccc1)NC(=O)OCc1ccccc1` (stereo unspecified), the GI50 with A549, in the experiment on CAKI-1, with COLO 205, in the experiment with HCT-116, with HL-60 and with HOP-62 was > 100 µM (inactive) each time. The GI50 is 77.1 µM (inactive) in the experiment on K562; > 100 µM (inactive) in the experiment on NCI-H23; 58.6 µM (inactive) in the experiment on NCI-H522; > 100 µM (inactive) in the experiment on OVCAR-3; > 100 µM (inactive) in the experiment with OVCAR-5; > 100 µM (inactive) in the experiment on RXF 393. Further, the GI50 in the experiment with SF-268 is > 100 µM (inactive); in the experiment with SK-MEL-28, > 100 µM (inactive); in the experiment with SK-MEL-2 it was > 100 µM (inactive); in the experiment with SK-OV-3, > 100 µM (inactive); with SNB-75, 33.3 µM (inactive); in the experiment with TK-10, > 100 µM (inactive). The GI50 with UACC-257 is 86.1 µM (inactive); in the experiment on UO-31, 71.4 µM (inactive).
Take `COc1ccc(C2CC(c3sc(Nc4ccc(C)cc4)nc3C)=NN2)cc1` (stereo unspecified): the GI50 in the experiment on A549 was 15.6 µM (inactive); in the experiment with CAKI-1, 18 µM (inactive); in the experiment with COLO 205, 13.7 µM (inactive); in the experiment on HCT-116, 6.46 µM (inactive); in the experiment with HL-60, 7.64 µM (inactive); with HOP-62 it was 20.7 µM (inactive). The GI50 was 12.8 µM (inactive) in the experiment on K562; 15.5 µM (inactive) in the experiment with NCI-H23; 15.3 µM (inactive) in the experiment with NCI-H522; 15.8 µM (inactive) with OVCAR-3; 22.4 µM (inactive) in the experiment with OVCAR-5; 13.2 µM (inactive) in the experiment with RXF 393. Besides, the GI50 in the experiment on SF-268 was 15.8 µM (inactive); with SK-MEL-28, 16.8 µM (inactive); in the experiment with SK-MEL-2, 15.8 µM (inactive); in the experiment with SK-OV-3 it was 24.4 µM (inactive); in the experiment with SNB-75, 14.8 µM (inactive); with UACC-257, 15.8 µM (inactive). Also, the GI50 in the experiment with UO-31 was 14.2 µM (inactive).
